Columns and labels:
[1] = biological target: T1, Glutamate NMDA receptor; Grin1/Grin2b (Rattus norvegicus, UniProt P35439+Q00960); experiment: Inhibition of NMDA response at NR1A/2B receptor expressed in Xenopus oocytes; assay type: cell-based, Oocyte
Target sequence in this assay (Q00960 whole entry, other chains not shown): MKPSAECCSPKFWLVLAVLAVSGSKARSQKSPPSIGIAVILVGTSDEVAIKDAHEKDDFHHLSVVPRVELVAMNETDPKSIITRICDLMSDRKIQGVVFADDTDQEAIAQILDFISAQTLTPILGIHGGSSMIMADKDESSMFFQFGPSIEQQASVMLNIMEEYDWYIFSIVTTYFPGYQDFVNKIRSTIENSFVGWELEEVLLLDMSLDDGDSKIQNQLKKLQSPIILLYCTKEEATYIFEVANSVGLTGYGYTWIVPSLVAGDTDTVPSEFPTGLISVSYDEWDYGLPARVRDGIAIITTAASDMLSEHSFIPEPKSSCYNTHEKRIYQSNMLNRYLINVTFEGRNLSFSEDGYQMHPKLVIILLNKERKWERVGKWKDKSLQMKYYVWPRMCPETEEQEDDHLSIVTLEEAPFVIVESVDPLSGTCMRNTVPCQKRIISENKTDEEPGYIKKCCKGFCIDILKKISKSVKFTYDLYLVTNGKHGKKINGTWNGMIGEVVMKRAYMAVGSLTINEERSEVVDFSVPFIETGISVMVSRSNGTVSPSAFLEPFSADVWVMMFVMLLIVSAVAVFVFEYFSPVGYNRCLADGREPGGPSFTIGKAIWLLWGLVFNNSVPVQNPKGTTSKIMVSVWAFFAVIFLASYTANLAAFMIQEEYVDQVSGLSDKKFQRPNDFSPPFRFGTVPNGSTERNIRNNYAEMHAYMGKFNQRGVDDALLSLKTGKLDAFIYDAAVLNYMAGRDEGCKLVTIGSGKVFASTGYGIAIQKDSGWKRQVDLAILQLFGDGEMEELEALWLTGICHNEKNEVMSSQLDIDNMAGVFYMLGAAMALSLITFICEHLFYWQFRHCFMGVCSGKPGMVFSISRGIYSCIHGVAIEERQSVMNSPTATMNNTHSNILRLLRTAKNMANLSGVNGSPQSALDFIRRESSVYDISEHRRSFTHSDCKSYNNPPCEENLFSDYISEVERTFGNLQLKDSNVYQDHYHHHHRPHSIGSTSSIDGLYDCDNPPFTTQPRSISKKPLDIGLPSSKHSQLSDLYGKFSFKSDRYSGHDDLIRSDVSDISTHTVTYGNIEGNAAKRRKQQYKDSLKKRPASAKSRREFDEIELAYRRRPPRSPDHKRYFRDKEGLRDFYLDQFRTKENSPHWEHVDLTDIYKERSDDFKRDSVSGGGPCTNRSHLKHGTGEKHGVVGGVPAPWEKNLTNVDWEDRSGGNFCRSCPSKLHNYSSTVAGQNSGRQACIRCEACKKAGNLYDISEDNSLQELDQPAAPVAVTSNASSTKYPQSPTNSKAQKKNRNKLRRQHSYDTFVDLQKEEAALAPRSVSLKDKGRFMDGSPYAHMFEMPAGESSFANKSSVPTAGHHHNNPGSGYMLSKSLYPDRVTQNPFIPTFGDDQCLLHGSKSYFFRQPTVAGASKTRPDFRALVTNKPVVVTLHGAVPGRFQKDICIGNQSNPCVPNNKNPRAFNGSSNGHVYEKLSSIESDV

[2] = biological target: T2, Glutamate receptor ionotropic, NMDA 2C (Rattus norvegicus, UniProt P35439+Q00961); experiment: Compound was tested in vitro for inhibition of NMDA response at cloned NR1A/2C receptor expressed in Xenopus oocytes; assay type: cell-based, frog, Oocyte
[3] = biological target: Glutamate NMDA receptor; Grin1/Grin2a (Rattus norvegicus, UniProt P35439+Q00959); experiment: Compound was tested in vitro for inhibition of NMDA response at cloned NR1A/2A receptor expressed in Xenopus oocytes; assay type: cell-based, frog, Oocyte
Rattus norvegicus = experiment: Compound was tested in vivo for potentiation of L-DOPA effect in 6-hydroxydopamine-lesioned rat when administered per orally; assay type: functional; details: po, read-out: MED
[4] = biological target: T1, Glutamate NMDA receptor; Grin1/Grin2b; experiment: The compound was tested in vitro for activity against NR1A/2B sub type of NMDA receptor; parameters: species or system frog
[5] = biological target: T2, Glutamate receptor ionotropic, NMDA 2C; experiment: The compound was tested in vitro for activity against NR1A/2C sub type of NMDA receptor; parameters: species or system frog

Chain of Glutamate NMDA receptor; Grin1/Grin2a (Q00959 whole entry, looked up, other chains not shown): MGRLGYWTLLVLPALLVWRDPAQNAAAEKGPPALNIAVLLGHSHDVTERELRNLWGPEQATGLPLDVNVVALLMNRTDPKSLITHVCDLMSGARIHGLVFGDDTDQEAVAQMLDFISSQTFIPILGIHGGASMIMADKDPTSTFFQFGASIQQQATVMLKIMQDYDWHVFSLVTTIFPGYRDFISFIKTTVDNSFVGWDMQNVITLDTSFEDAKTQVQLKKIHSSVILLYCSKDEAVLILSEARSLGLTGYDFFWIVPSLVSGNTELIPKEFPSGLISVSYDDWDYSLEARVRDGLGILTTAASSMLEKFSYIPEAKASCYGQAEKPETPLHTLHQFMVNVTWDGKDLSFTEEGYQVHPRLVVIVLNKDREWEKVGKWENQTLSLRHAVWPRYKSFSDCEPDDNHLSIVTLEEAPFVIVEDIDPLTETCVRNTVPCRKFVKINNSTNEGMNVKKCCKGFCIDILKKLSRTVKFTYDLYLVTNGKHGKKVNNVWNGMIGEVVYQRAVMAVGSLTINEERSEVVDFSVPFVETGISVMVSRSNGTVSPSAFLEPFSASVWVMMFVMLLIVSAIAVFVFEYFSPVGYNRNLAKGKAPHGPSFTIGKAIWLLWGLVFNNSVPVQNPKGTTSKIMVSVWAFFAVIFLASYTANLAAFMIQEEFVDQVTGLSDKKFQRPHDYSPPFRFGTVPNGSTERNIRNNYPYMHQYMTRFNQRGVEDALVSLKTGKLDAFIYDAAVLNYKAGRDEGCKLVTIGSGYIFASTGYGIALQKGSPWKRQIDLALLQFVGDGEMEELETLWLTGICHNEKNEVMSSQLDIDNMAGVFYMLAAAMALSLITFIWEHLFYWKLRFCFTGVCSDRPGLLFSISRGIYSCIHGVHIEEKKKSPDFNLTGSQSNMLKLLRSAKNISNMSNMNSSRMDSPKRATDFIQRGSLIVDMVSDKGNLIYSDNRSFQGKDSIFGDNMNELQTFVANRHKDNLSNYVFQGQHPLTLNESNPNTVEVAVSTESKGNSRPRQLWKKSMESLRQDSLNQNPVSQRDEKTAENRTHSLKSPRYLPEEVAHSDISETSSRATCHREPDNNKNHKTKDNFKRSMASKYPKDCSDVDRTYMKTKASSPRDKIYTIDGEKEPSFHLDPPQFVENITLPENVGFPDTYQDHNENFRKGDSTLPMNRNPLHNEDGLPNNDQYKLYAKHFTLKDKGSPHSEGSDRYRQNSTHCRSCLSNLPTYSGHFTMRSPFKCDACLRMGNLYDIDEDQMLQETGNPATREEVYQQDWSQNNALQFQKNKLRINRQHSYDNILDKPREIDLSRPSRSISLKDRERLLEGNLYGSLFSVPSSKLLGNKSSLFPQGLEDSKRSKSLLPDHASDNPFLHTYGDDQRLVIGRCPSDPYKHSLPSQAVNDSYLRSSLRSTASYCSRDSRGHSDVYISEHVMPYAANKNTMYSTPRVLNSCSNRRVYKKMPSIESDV
T2 sequence (Q00961 whole entry, one chain of several): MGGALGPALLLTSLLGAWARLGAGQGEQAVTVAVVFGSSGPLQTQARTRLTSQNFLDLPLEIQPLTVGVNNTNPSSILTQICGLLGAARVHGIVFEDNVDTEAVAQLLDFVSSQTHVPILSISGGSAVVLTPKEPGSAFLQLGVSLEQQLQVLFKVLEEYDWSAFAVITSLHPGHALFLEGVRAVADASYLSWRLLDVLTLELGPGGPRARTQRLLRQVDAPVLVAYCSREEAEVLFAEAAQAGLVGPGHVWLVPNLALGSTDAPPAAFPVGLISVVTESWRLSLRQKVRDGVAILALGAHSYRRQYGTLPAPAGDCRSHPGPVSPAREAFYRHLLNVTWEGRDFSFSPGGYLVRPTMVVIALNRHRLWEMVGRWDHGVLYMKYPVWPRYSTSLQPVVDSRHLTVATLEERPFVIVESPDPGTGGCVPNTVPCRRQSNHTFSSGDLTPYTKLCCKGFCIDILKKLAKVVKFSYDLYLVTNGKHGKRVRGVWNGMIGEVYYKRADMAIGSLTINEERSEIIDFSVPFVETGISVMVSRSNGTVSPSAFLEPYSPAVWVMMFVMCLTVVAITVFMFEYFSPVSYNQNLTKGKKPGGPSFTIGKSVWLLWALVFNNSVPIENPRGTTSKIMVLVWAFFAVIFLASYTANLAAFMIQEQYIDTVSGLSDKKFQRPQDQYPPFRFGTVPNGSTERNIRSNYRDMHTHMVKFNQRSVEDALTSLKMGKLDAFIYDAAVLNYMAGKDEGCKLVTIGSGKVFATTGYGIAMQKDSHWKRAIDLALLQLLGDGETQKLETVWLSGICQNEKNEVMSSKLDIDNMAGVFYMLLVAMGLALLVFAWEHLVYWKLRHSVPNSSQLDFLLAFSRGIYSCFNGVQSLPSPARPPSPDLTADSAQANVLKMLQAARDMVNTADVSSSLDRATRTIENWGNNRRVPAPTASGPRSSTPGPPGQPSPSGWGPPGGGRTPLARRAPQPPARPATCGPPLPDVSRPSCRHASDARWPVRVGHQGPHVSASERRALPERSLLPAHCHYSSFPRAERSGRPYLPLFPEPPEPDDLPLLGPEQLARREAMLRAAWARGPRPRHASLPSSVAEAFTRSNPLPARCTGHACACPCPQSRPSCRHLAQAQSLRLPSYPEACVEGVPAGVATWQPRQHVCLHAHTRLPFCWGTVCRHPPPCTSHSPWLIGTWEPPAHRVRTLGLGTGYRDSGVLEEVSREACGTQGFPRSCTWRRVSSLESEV

Structure (SMILES)	IC50 [1]	IC50 [2]	IC50 [3]	minimal effective dose (Rattus norvegicus)	IC50 [4]	IC50 [5]
Cc1ccc(CC2CCN(CCC#Cc3c[nH]cn3)CC2)cc1	0.02 µM	38 µM	16 µM	10 mg/kg	–	–
OC1(c2ccccc2)CCN(CCC#Cc2c[nH]cn2)CC1	3.5 µM	36 µM	8.4 µM	–	–	–
Clc1ccc(CC2CCN(CCC#Cc3cnc[nH]3)CC2)cc1	0.028 µM	80 µM	26 µM	10 mg/kg	–	–
C(#Cc1cn[nH]c1)CN1CCC(Cc2ccccc2)CC1	–	–	> 100 µM	–	0.82 µM	> 100 µM
C(#Cc1cnc[nH]1)CCN1CCC(Cc2ccccc2)CC1	0.037 µM	70 µM	53 µM	3 mg/kg	–	–
Fc1ccc(CC2CCN(CCC#Cc3c[nH]cn3)CC2)cc1	0.05 µM	> 100 µM	40 µM	> 10 mg/kg	–	–
C(#Cc1cn[nH]c1)CCN1CCC(Cc2ccccc2)CC1	0.074 µM	> 100 µM	67 µM	30 mg/kg	–	–
C(#Cc1cc[nH]c1)CCN1CCC(Cc2ccccc2)CC1	0.19 µM	> 100 µM	51 µM	30 mg/kg	–	–
C(#Cc1cnc[nH]1)CN1CCC(Cc2ccccc2)CC1	0.12 µM	34 µM	38 µM	10 mg/kg	–	–
OC1(Cc2ccccc2)CCN(CCC#Cc2c[nH]cn2)CC1	0.22 µM	> 100 µM	> 100 µM	> 10 mg/kg	–	–
C(#Cc1cnc[nH]1)CCN1CCC(c2ccccc2)CC1	0.81 µM	5 µM	1.4 µM	–	–	–
C(#Cc1cc[nH]c1)CN1CCC(Cc2ccccc2)CC1	1.1 µM	56 µM	53 µM	–	–	–
